# Measurements reported in patent US20260256811A1, “Humoral Immune Activators for the Treatment of Humoral Immunosuppressed Pathologies, Cancer and Infectious Disease and Humoral Immune Suppressors for the Treatment of Inflammatory Diseases” (Navrogen, Inc., priority 2022, published 2026).
# Key:
# CD16a-158F FcR = target: T1, CD16a-158F FcR (Homo sapiens, UniProt P08637); assay: Jurkat-CD16a-158F-luciferase (JKT-CD16a) reporter bioassay; format: cell-based
# T1 construct: host or cells: Jurkat (JKT-CD16a luciferase reporter line)
# CD16a FcR [1] = assay: Cytokine ELISA on culture media of JKT-CD16a and parental Jurkat cells; format: cell-based, human; conditions: 10 μM, 18 hours, ELISA of supernatant
# [2] = tested on: SKBR3, OE19 or OV-CD20 target cells; assay: ADCC by human PBMC and NK effector cells against tumor target cells; format: cell-based; conditions: 25 or 50 μM plus 2.5 μg/mL trastuzumab or rituximab, 24 hours; vs antibody alone (vehicle)
# Procedure: (§1) Briefly, 5,000 human breast carcinoma (SKBR3 or OE19) or OV-CD20 target cells were plated in black 96-well microplates in R7.5 media for 48 hours. Wells were washed and 50,000 PBMC, NK or SPL effector cells were added in R1 assay media with or without a targeting test antibody and 25 or 50 μM of Compound 2. Vehicle is the solvent that Compound 2 is dissolved in. For assays employing SKBR3 human breast cancer or OE19 esophageal adenocarcinoma cell lines, 2.5 μg/mL of the HER2-targeting trastuzumab test antibody was used for ADCC assays. For OV-CD20 assays, 2.5 μg/mL of the CD20-targeting rituximab test antibody was used for ADCC assays. Cultures were incubated for 24 hours at 37° C. in 5% CO2 in triplicate. After incubation, culture supernatants were harvested for cytokine analysis and wells were washed with phosphate buffered saline and adhered target cell viability was quantified via Cell Titer-GLO (Promega) using a Varioskan plate reader. […] ADCC data was graphed as percent killing of antibody treated with Compound 2 or vehicle vs. cultures not treated with antibody. […] AICC results were graphed as percent killing by Compound 2 vs vehicle only treated cultures. […] Experiments represent a minimum of triplicate wells.
# tumor target cells = assay: ADCC and cytokine production by mouse splenocyte (SPL) effector cells; format: cell-based; conditions: 25 or 50 μM plus targeting antibody, 24 hours; vs antibody alone (vehicle)
# Procedure: as §1
# OV-CD20 tumor cells = assay: AICC by human primary NK cells; format: cell-based; conditions: absence of antibody, vs vehicle
# Procedure: as §1
# CD16a FcR [3] = assay: Cytokine and granzyme ELISA on supernatants of primary human effector cells; format: cell-based
# Procedure: as §1
# [4] = Tolerability and serum TNFα in athymic nude mice, i.v. dosing; format: in vivo
# Procedure: To determine the ability of Compound 2 to activate immune-effector cells in vivo, we administered 7 mg/kg of Compound 2 or similar volumes of vehicle (ethanol) daily for 5 days (day 1-5) and isolated total serum on day 11 to measure for immune-effector cell activation markers. […] Experiments represent a minimum of triplicate wells.
# SARS-COV-2 virus = assay: Viability of human PBMCs exposed to SARS-COV-2 virus; format: cell-based; conditions: Severe acute respiratory syndrome coronavirus 2, PBMC, 72 h, read-out: PBMC viability after SARS-COV-2 exposure
# Source text: NK cells have been previously reported to be capable of killing virally infected cells (Bjorkstrom N K, et al. Nat Reviews Immunol 22:112-123, 2022). In particular, previous studies have shown that the SARS-COV-2 virus can infect human PBMCs and this infection can be lethal to overall PBMC survival (Manunta MDI, et al. Scientific Reports 11:4904-4916, 2021). To test the ability of CD16a FcR activating small molecular weight agents described here to activate effector cells within PBMCs that in turn can kill virally infected PBMC sib cells and reduce viral load, Compound 2 was tested against human PBMCs exposed to SARS-COV-2 virus. Briefly, IL2-activated PBMCs grown in RPMI media with 10% heat inactivated FBS (R10) were plated at 100,000 cells/well in 96 well U-bottom microplates. Next, […] viral titers (previously determined by plaque forming units, PFU) were added to appropriate wells with or without 25 μM of Compound 2. Cultures were incubated for 72 hours at 37° C. in 5% CO2. Plates were centrifuged and supernatants collected for future cytokine and viral titer analysis. Cells were resuspended in RPMI plus 10% FBS, transferred to 96-well black microplates and tested for viability using Cell Titer-Glo (Promega) and read for viability on a 96-well microplate reader. […] Experiments represent a minimum of triplicate wells.
# [5] = Metabolic stability in mouse liver microsomes; format: in vitro ADME; conditions: mouse, microsomes
# Procedure: (§2) We next tested Compounds 2, 26, 27 and 33 for metabolic stability using human and mouse microsomes. For each test compound, samples were diluted a final concentration of 2 μg/mL in 25 mM potassium phosphate buffer with liver microsomes of each species at a final concentration of 0.5 mg/mL. The enzyme reaction was initiated by the addition of NADPH reagent at a final concentration of 1 mM. For negative control samples, NADPH reagent was not added. Samples were incubated at 37° C. on a 50-RPM orbital shaker, and an aliquot was removed at pre-determined timepoints at 0, 5, 10, 15, 30, and 60 minutes. Samples were then precipitated with three volume of acetonitrile containing propranolol as an internal standard, and centrifuged for 10 min at 2000 g then analyzed by LC/MS/MS. Note that compounds undergo only Phase I metabolism in liver microsomes in the presence of NADPH cofactors. Data interpretation of results are based on percent parent compound remaining relative to 0-minute incubation samples, from which the elimination half-life is calculated based on the natural log of % compound remaining vs. time plot. The following parameters were calculated to estimate the compound's in vitro metabolic stability: Cmp=concentration of microsomal proteins (mg/mL); t1/2=the half-life (min), where t1/2 is equal to 0.693/slope; CLint=the intrinsic hepatic clearance (μL/min/mg), where CLint is equal to 0.693/(t1/2×Cmp).
# [6] = Metabolic stability in human liver microsomes; format: in vitro ADME; conditions: human, microsomes
# Procedure: as §2
# T1 sequence (P08637 17-254): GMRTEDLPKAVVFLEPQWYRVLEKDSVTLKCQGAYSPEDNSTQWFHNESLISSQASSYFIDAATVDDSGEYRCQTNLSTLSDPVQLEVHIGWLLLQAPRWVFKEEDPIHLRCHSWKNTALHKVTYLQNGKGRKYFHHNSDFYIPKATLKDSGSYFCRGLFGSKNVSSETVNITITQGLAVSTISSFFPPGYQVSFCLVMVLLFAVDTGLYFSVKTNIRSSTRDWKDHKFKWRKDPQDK
# T1 sequence (P20963 22-164 partner): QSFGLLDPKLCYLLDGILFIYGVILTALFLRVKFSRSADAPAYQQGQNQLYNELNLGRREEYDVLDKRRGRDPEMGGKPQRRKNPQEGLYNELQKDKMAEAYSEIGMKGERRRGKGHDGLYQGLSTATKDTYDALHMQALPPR
compound,measurement,setting,value
CC(C)=CCC[C@@H](C)[C@H]1CC[C@@]2(C)C3CC[C@H]4C(C)(C)[C@@H](O)CC[C@@]45C[C@@]35CC[C@]12C (some centres unmarked) [Compound 2],JKT-CD16a activation (luciferase RLU) in the presence of IgG,"CD16a-158F FcR; OV-CD20 target cells plus 2.5 μg/mL rituximab, 12-18 hours, vs vehicle or no compound",significant enhancement
same,JKT-CD16a-158F FcR activation (luciferase RLU) in the absence of IgG antibody,"CD16a-158F FcR; OV-CD20 target cells without antibody, lower levels than with IgG",stimulated
same,IFNγ and TNFα production by JKT-CD16a-158F cells,CD16a FcR [1],both cytokines were produced
same,IFNγ and TNFα production by parental Jurkat cells (CD16a-null),CD16a FcR [1],little to no cytokine production
same,human (PBMC and NK cells) effector cell killing of target cells through ADCC,[2],enhance
same,mouse (SPL cells) effector cell killing of target cells through ADCC,tumor target cells,enhance
same,NK cell killing of OV-CD20 tumor cells via AICC,OV-CD20 tumor cells,enabled NK cell killing of OV-CD20 tumor cells
same,"TNFα, IFNγ, GM-CSF and granzyme B production by NK cells","CD16a FcR [3]; absence of antibody, ELISA of supernatants",produced and secreted
same,time of exposure to activation and cytokine production,CD16a FcR [3]; time course analysis,≤ 30 min
same,serum TNFα,"[4]; 7 mg/kg i.v. daily day 1-5, serum on day 11, ELISA, vehicle cohort 11 μg/mL",298 µg/mL
same,tolerability by lack of body weight loss,"[4]; 7 mg/kg i.v. daily for 5 days, athymic nude mice",well tolerated
same,"tolerable dose, daily i.v. dosing",[4]; athymic nude mice,at least 7 mg/kg
same,viability at 25 µM,SARS-COV-2 virus,100%
same,half-life at 2 μg/mL,[5],1.88 h
same,microsomal CLint at 2 μg/mL,[5],12.3 µL/min/mg
same,half-life at 2 μg/mL,[6],1.18 h
same,microsomal CLint at 2 μg/mL,[6],19.7 µL/min/mg
